We go through 69 compounds from publication PMC8041284, “Tunable Methacrylamides for Covalent Ligand Directed Release Chemistry” (Journal of the American Chemical Society, 2021).

In general, inhibition refers to the relative decrease from the control value, in per cent.

Chain of BTK (Q06187 402-655 limits assumed): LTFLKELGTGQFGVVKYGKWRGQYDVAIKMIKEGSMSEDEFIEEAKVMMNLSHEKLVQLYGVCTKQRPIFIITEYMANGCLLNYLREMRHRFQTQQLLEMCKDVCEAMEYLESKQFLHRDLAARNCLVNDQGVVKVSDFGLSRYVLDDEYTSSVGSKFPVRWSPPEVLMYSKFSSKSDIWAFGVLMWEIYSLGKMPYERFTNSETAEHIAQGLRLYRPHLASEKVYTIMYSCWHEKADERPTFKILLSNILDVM

One test has as its target BTK (Homo sapiens, UniProt Q06187). Briefly: biochemical. The following applies: read-out: BTK inhibition (%).
For `CCN1C[C@]2(COC)CC[C@H](OC)[C@]34C1[C@H]([C@H](OC)[C@H]23)[C@@]1(OC(C)=O)C[C@H](OC)[C@@]2(O)C[C@@H]4[C@@H]1[C@H]2OC(=O)c1ccc(OC)cc1` [PCM-0216304], the inhibition at 10 µM is -17%.
Still for that read-out and setting: under `Oc1ccc(-c2c(-c3ccccc3)nn3c(C(F)(F)F)cc(C(F)(F)F)nc23)cc1` [PCM-0216048] stands 27.8%.

Still in this test, the particulars now being: read-out: BTK inhibition (%), 0.75 uM BTK, […] probe 3l, 15 min preincubation.
As for `Cc1cc(Nc2nc(N[C@@H](C)c3ccc(F)cc3)c(C#N)cc2F)n[nH]1` [PCM-0095250], the inhibition at 10 µM was 99.3%.
Regarding `CN[C@@H]1[C@@H](O)[C@@H](O[C@@H]2[C@@H](O)[C@H](O[C@H]3OC(CN)=CC[C@H]3N)[C@@H](N)C[C@H]2N)OC[C@]1(C)O` [PCM-0215656], the inhibition at 10 µM stood at 28.9%.
Take `COC(=O)CC1CC(c2ccc(O)cc2)=NO1` (stereo not drawn) [PCM-0216118]: the inhibition at 10 µM was -16.6%.
Turning to `CN/C(=C\[N+](=O)[O-])NCCSCc1ccc(CN(C)C)o1` [PCM-0065476], the inhibition at 10 µM was -3.4%.
For the compound `NC(=O)OCC(COC(N)=O)c1ccccc1` [PCM-0065204], the inhibition at 10 µM stood at 3.1%.
On to `CN(C)CCC(c1ccc(Br)cc1)c1ccccn1` (stereo not drawn) [PCM-0064576], for which the inhibition at 10 µM was -19.3%.
As for `O=C1Cc2ccccc2N1` [PCM-0215133], the inhibition at 10 µM worked out at 1.6%.
With `CC(C)(C)NCC(O)c1cc(O)cc(O)c1` (stereo not drawn) [PCM-0064743], the inhibition at 10 µM is -26.4%.
Consider `Cc1nc2cccc(N)c2c(=O)n1C1CCC(=O)NC1=O` (stereo not drawn) [PCM-0215785], for which the inhibition at 10 µM was determined as 2.3%.
For `Cc1cccc(-c2[nH]c(C(C)(C)C)nc2-c2ccc3c(c2)OCO3)n1` [PCM-0095234], the inhibition at 10 µM amounted to 9.3%.
Still for that read-out and setting: under `COc1ccc2[nH]c(=O)oc2c1` [PCM-0216501] stands -4.6%; under `C/C(=C\CNc1ncnc2c1ncn2[C@@H]1O[C@H](CO)[C@@H](O)[C@H]1O)CO` [PCM-0216644], 0.8%.
`CC(/C=C/C=C(\C)C(=O)O[C@@H]1O[C@H](CO[C@@H]2O[C@H](CO)[C@@H](O)[C@H](O)[C@H]2O)[C@@H](O)[C@H](O)[C@H]1O)=C\C=C\C=C(C)\C=C\C=C(/C)C(=O)O[C@@H]1O[C@H](CO[C@@H]2O[C@H](CO)[C@@H](O)[C@H](O)[C@H]2O)[C@@H](O)[C@H](O)[C@H]1O` [PCM-0214941]: the inhibition at 10 µM was -8.6%.
The same measure, in the same setting: the figure for `CC1=C(CSC(=S)N2CCCCC2)C(=O)c2ccccc2C1=O` [PCM-0215883] is 21.6%; for `CC1=CC(=O)c2ccccc2C1=O` [PCM-0009823] it is -3.1%.
Same read-out and setting: the figure for `CNC(=O)c1c(F)cccc1Nc1nc(Nc2cc3c(cc2OC)CCN3C(=O)CN(C)C)nc2[nH]ccc12` [PCM-0095412] is 13.8%; for `CCCCCCNC(=O)n1cc(F)c(=O)[nH]c1=O` [PCM-0065487] it is -7%; for `CN1CCc2nc(C(=O)N[C@@H]3C[C@@H](C(=O)N(C)C)CC[C@@H]3NC(=O)C(=O)Nc3ccc(Cl)cn3)sc2C1` [PCM-0216277] it is -4.6%.
For the compound `Cc1nc(C#Cc2ccnc(Cl)c2)c(C)n1-c1ccc(OC(F)(F)F)cc1` [PCM-0095504], the inhibition at 10 µM was -55.3%.
The same measure, in the same setting: the figure for `COc1cccc2c1C(=O)c1c(O)c3c(c(O)c1C2=O)C[C@@](O)(C(=O)CO)C[C@@H]3O[C@H]1C[C@H](N)[C@H](O[C@@H]2CCCCO2)[C@H](C)O1` [PCM-0214749] is 53.7%.
Regarding `COc1cc(F)c(F)c(Nc2ccc(I)cc2F)c1NS(=O)(=O)C1(C[C@H](O)CO)CC1` [PCM-0214795], the inhibition at 10 µM amounted to 36.6%.
With `O=c1cc(O)c(Cl)c[nH]1` [PCM-0095217], the inhibition at 10 µM is -3.9%.
As for `OCCN1C[C@H](O)[C@@H](O)[C@H](O)[C@H]1CO` [PCM-0086065], the inhibition at 10 µM is -23.3%.
Regarding `Nc1nc(Cl)nc2c1ncn2[C@@H]1O[C@H](CO)[C@@H](O)[C@@H]1F` [PCM-0094949], the inhibition at 10 µM stood at 1.4%.
In the case of `C[N+]12CCc3cc4c(cc3C1(O)Cc1ccc3c(c1C2)OCO3)OCO4` (stereo not drawn) [PCM-0216462], the inhibition at 10 µM is -18.5%.
On the same count and under the same terms, under `COc1cc2oc(-c3ccc(O)cc3)cc(=O)c2c(O)c1[C@@H]1O[C@H](CO)[C@@H](O)[C@H](O)[C@H]1O[C@@H]1O[C@H](CO)[C@@H](O)[C@H](O)[C@H]1O` [PCM-0216416] stands -15.4%; under `COc1cc(NC(=O)c2ccc(-c3ccc(Cl)cc3)o2)cc(OC)c1` [PCM-0095366], 56.8%; under `C[C@]12CC[C@@H]3c4ccc(O)cc4CC[C@H]3[C@@H]1CC[C@@H]2OC(=O)CCC1CCCC1` [PCM-0214748], 0.8%.
Turning to `Cc1ccn[nH]1` [PCM-0215907], the inhibition at 10 µM is 4.6%.
For `CN1C[C@@H]2c3ccccc3Oc3ccc(Cl)cc3[C@H]2C1` [PCM-0095064], the inhibition at 10 µM worked out at 9.3%.
On to `NC(=O)c1ccc(-c2nc(-c3ccc4c(c3)OCCO4)c(-c3ccccn3)[nH]2)cc1` [PCM-0215472], for which the inhibition at 10 µM stood at 17.2%.
For the compound `NC(=O)[C@@H]1CC[C@@H]2CN1C(=O)N2OS(=O)(=O)O` [PCM-0214883], the inhibition at 10 µM was -9.3%.
Turning to `Fc1cc(F)c2c(c1)[C@H]1C=CC[C@H]1C(c1cccnc1)N2` (stereo partly drawn) [PCM-0215243], the inhibition at 10 µM is -18.5%.
`COc1cc2c(cc1OC)C(=O)C(CC1CCN(Cc3ccccc3)CC1)C2` (stereo not drawn) [PCM-0090394]: the inhibition at 10 µM is -23.8%.
`CC#C[C@]1(O)CC[C@H]2[C@@H]3CCC4=CC(=O)CCC4=C3[C@@H](c3ccc(N(C)C)cc3)C[C@@]21C` [PCM-0064713]: the inhibition at 10 µM stood at 38.6%.
Regarding `Cc1coc2c1C(=O)C(=O)c1c-2ccc2c1CCCC2(C)C` [PCM-0091329], the inhibition at 10 µM amounted to 16.3%.
Turning to `COc1cc(C(=O)O)ccc1NC(=O)[C@@H]1N[C@@H](CC(C)(C)C)[C@](C#N)(c2ccc(Cl)cc2F)[C@H]1c1cccc(Cl)c1F` [PCM-0215391], the inhibition at 10 µM was determined as 27.8%.
`CC(C)c1cc2c(N3CCN(C4=NCC(C)(C)S4)CC3)ncnc2s1` [PCM-0215379]: the inhibition at 10 µM is -7.7%.
For `CO[C@H]1/C=C\C=C(/C)C(=O)NC2=CC(=O)C(NCCN(C)C)=C(C[C@@H](C)C[C@H](OC)[C@H](O)[C@@H](C)/C=C(\C)[C@@H]1OC(N)=O)C2=O` [PCM-0094961], the inhibition at 10 µM amounted to 28.3%.
Take `O=C(CCc1ccc(O)cc1)c1c(O)cc(O)cc1O[C@@H]1O[C@H](CO)[C@@H](O)[C@H](O)[C@H]1O` [PCM-0089058]: the inhibition at 10 µM is 4.7%.
With `COc1ccc2cc([C@H](C)C(=O)O)ccc2c1` [PCM-0000233], the inhibition at 10 µM is -13.1%.
As for `CC(C)OC(=O)C(C)(C)Oc1ccc(C(=O)c2ccc(Cl)cc2)cc1` [PCM-0065053], the inhibition at 10 µM came to 8.6%.
For the compound `CCN1CCC[C@H]1CNC(=O)c1cc(S(N)(=O)=O)ccc1OC` [PCM-0065527], the inhibition at 10 µM is -6.2%.
Take `O=C(O)CSCC(=O)NC1CCSC1=O` (stereo not drawn) [PCM-0090679]: the inhibition at 10 µM is -10.9%.
Consider `C=C(C)C1CC=C(/C=N/O)CC1` (stereo not drawn) [PCM-0216339], for which the inhibition at 10 µM was -2.3%.
On to `CC(C)c1c2cc(-c3ccnc(NC4CCC(NC5CCOCC5)CC4)n3)ccc2nn1C` (stereo not drawn) [PCM-0215782], for which the inhibition at 10 µM amounted to 3.4%.
In the case of `O=c1cc(-c2ccccc2)oc2cc(O)c(O)c(O)c12` [PCM-0214670], the inhibition at 10 µM is 79.4%.
As for `C[C@@H]1CC(=O)Nc2cccc(-c3ccc4c(c3)c(-c3cnn(C)c3)nn4C)c2N1` [PCM-0215716], the inhibition at 10 µM is 1.5%.
As to `Cc1ccc(NC(=O)Nc2cc(C(F)(F)F)ccc2F)cc1Nc1ccc2c(c1)NC(=O)/C2=C\c1ccc[nH]1` [PCM-0215372], the inhibition at 10 µM was found to be 116%.
Turning to `C[C@@H]1O[C@@H](O[C@H]2[C@H](Oc3cc(O)c(C(=O)CCc4ccc(O)cc4)c(O)c3)O[C@H](CO)[C@@H](O)[C@@H]2O)[C@H](O)[C@H](O)[C@H]1O` [PCM-0094838], the inhibition at 10 µM stood at 14.8%.
Still for that read-out and setting: under `Cc1cc(=O)n(-c2ccccc2)n1C` [PCM-0085809] stands 13.8%.
Regarding `Clc1ncnc2nc[nH]c12` [PCM-0215064], the inhibition at 10 µM worked out at 9.3%.
Take `N#C/C(=C(\O)c1ccc(Cl)cc1Cl)c1nc2ccccc2c(=O)[nH]1` [PCM-0215733]: the inhibition at 10 µM is -6.9%.
For `Cc1ccc(C=O)o1` [PCM-0216625], the inhibition at 10 µM was -5.4%.
As for `C[C@@H]1O[C@@H](O[C@H]2[C@H](O[C@H]3CC[C@@]4(C)[C@@H](CC[C@]5(C)[C@@H]4CC=C4[C@@H]6CC(C)(C)CC[C@]6(C(=O)O)CC[C@]45C)[C@]3(C)CO)OC[C@H](O)[C@@H]2O)[C@H](O)[C@H](O)[C@H]1O` [PCM-0214969], the inhibition at 10 µM was -10.9%.
On to `CC(C(=O)O)c1ccc(C(=O)c2cccs2)cc1` (stereo not drawn) [PCM-0086408], for which the inhibition at 10 µM is -1.4%.
In the case of `O=C1[C@H]2CCCC[C@H]2C(=O)N1CCCCN1CCN(c2nsc3ccccc23)CC1` [PCM-0216064], the inhibition at 10 µM was -9.3%.
With `COc1ccc(C[C@@H]2c3cc(Oc4cc(C[C@@H]5c6cc(O)c(OC)cc6CCN5C)ccc4O)c(OC)cc3CCN2C)cc1` [PCM-0216496], the inhibition at 10 µM was 16.2%.
Take `O=C(O)c1cccnc1` [PCM-0086368]: the inhibition at 10 µM was found to be 3.1%.
With `CCS(=O)(=O)Nc1ccc2[nH]c(O)c(C(=Nc3ccc(CN4CCCCC4)cc3)c3ccccc3)c2c1` [PCM-0095089], the inhibition at 10 µM amounted to 82.1%.
Still for that read-out and setting: under `CCOC(=O)C1=C(COCCN)NC(C)=C(C(=O)OC)[C@@H]1c1ccccc1Cl` [PCM-0214889] stands -11.7%; under `CC(C)(C)c1cc(NC(=O)Nc2ccc(Oc3ccnc4[nH]c(=O)cnc34)cc2F)n(-c2ccccc2)n1` [PCM-0215780], 61.4%.
Same read-out and setting: under `COc1ccc(CCCOC(Cn2ccnc2)c2ccc(OC)cc2)cc1` (stereo not drawn) [PCM-0215655] stands -8.5%; under `CCCN(CCC)CCc1cccc2c1CC(=O)N2` [PCM-0065591], -18.7%.
Still for that read-out and setting: under `O=C(c1ccc(F)cc1)C1CCN(CCn2c(=O)[nH]c3ccccc3c2=O)CC1` [PCM-0065006] stands 0%; under `COc1ccc(/C=C/c2cc(O)cc(O)c2)cc1O` [PCM-0216438], 14.7%; under `COc1ccc(Cl)cc1C(=O)NCCc1ccc(S(=O)(=O)NC(=O)NC2CCCCC2)cc1` [PCM-0003840], -65.4%.
